Assays:
human HDAC1 = biological target: T1, human HDAC1 (Homo sapiens, UniProt Q13547); assay: Homo sapiens HDAC1 inhibition assay (Fluor-de-Lys, enzymatic); format: biochemical; details: human HDAC enzymatic assay; read-out: hHDAC IC50
T1 construct: made in house; host or cells: HeLa (ATCC CCL-2), mammalian cells
Experimental: Biology Homo sapiens HDAC1 Inhibition Assay Overview:
The aim of the assay is to evaluate the inhibition of the deacetylase activity of human HDAC1. To such goal an acetylated substrate is added to the enzyme mix; the resulting enzymatic product is converted to a fluorescent molecule by the addition the enzyme trypsine (developer solution). Fluorescence intensity is inversely proportional to the rate of inhibition of the enzyme (as indicated in the material section below).
Reagents of the HDAC Fluorescent Activity Assay are purchased from Enzo Life Sciences (http://www.enzolifesciences.com/BML-AK500/fluor-de-lys-hdac-fluorometric-activity-assay-kit/) and feature the Fluor-de-Lys™ Substrate/Developer System.
c) Trichostatin A (TSA) Stock
TSA (Sigma-Aldrich, T8552) is provided as a 10 mM stock solution in 100% dimethylsulfoxide (DMSO).
Diluted Substrate Solution
The final concentration in the assay is 20 μM.
Diluted Developer Solution
2 μM [final] TSA to this solution increases its ability to stop the reaction.
The HDAC1 enzyme is diluted in assay buffer prior to each use from a fresh aliquot of enzyme.
The final concentration in the assay is 1-2 nM.
Test compounds should be prepared in 100% DMSO and transferred to the assay by a nano volume dispenser to reach the appropriate concentration and the appropriate DMSO concentration (0.25%) in the reaction.

[1] = system: Plasmodium falciparum 3D7; assay: P. falciparum growth inhibition assay (Pf-LDH); format: cell-based; details: Plasmodium falciparum, Erythrocyte; P. falciparum 3D7 infected erythrocytes, 72 h incubation, PfLDH readout
Experimental: Basic culture of Plasmodium falciparum 3D7 parasites (Malaria Research and Reference Reagent Resource Center (MR4), MR4 Number: MRA-102).
Starting with a culture with a parasitemia of about 10% (and 5% hematocrit), 0.5 ml of the culture is placed in a fresh 100 mm petri dish with 0.95 ml of fresh erythrocytes (50% hematocrit) and 8.55 ml of culture medium, giving a new starting parasitemia of 0.5%. The petri dish is then incubated at 37° C. in a humidified gas-tight plastic box flushed with a gas mixture consisting of 93% N2, 4% CO2, and 3% O2. The culture medium is changed daily. The supernatant is removed by gently tipping the dish without disturbing the settled cells and aspirating the medium with a Pasteur pipette connected to a vacuum pump. A small amount of the concentrated cells is taken to prepare a blood smear for determination of the parasitemia. Normally, the cultures are split twice a week. If the parasites are growing very slowly then fresh erythrocytes are added to the culture no later than after 7 days. The cultures are then split 1:2 if the parasitemia is lower than 0.5%. To avoid the necessity of daily medium change on weekends, a culture with a 2.5% hematocrit and 0.1-0.2% parasitemia is set up and can be left for 3 days without medium change.
Standard medium consists of RPMI 1640, supplemented with 25 mM HEPES, 24 mM NaHCO3, 0.36 mM hypoxanthine, 100 μg/ml Neomycin, 5 g/1 Albumax® II, and washed human red blood cells (rbcs) A+.
P. falciparum Growth Inhibition Assay (Pf-LDH)
Compounds of the invention were assessed for in vitro antimalarial activity against a cloroquine sensitive (3D7) strain of the malaria parasite Plasmodium falciparum, using a lactate dehydrogenase (PfLDH) assay.
EC50 Determination by Pf-LDH Assay
384 plates (where compounds to be tested are dispensed) with 25 μl of parasite inoculum (parasitemia: 0.25%, hematocrit: 2%) are incubated at 37° C. in an atmosphere of 4% CO2, 3% O2, 93% N2. After 72 h of incubation, plates are frozen at −70° C. overnight and thawed at room temperature for at least 4 h. To evaluate PfLDH activity, 70 μl of freshly made reaction mix (143 mM sodium L-lactate, 143 μM 3-acetyl pyridine adenine dinucleotide (APAD), 178.75 μM Nitro Blue tetrazolium chloride (NBT), 286 μg/ml diaphorase (2.83 U/ml), 0.7% Tween 20, 100 mM Tris-HCl pH 8.0) is dispensed using a Multidrop Combi dispenser. Plates are shaken to ensure mixing and absorbance at 650 nm is monitored in a plate reader after 10 min of incubation at room temperature.
Negative controls (0% Effect) are produced by addition of DMSO to the proper wells.
Positive controls (100% Effect) are produced by addition of 150 nM Artemisinin (Sigma-Aldrich, 361593)
After result normalization using positive and negative controls, compound potency is determined by fitting the following equation: % inh=Ymin+(Ymax−Ymin)/(1+(X/EC50)^slope)) Where: • Ymin=minimum percentage effect • Ymax=maximum percentage effect • EC50=the concentration of the compound at which 50% effect is reached • Slope=the slope of the curve calculated at the EC50 Histone Hyperacetylation and Immunodetection of Altered Histone Modifications Assay

T1 sequence (Q13547 whole entry): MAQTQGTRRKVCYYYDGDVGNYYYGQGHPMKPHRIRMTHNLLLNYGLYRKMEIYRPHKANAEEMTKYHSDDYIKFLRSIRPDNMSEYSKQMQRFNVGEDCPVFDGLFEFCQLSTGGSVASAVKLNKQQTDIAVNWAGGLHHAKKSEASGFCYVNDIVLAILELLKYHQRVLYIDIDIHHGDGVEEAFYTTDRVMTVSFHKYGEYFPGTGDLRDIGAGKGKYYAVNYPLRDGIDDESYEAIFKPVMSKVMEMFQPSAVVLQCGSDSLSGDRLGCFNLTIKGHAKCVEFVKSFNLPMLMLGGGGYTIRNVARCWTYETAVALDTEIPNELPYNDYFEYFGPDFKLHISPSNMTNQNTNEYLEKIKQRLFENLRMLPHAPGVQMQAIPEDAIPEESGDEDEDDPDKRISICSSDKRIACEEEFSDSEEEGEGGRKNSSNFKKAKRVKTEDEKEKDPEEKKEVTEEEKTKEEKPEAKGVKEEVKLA

Compound | IC50 (human HDAC1) [nM] | EC50 [1] [nM]
CNC(=O)CCCCC[C@H](NC(=O)C1(C)CCCO1)c1ncc(-c2ccc(-c3ccn(C)n3)cc2)[nH]1 (stereo partly drawn) [Entry 123, 2-methyl-N-((S)-1-(5-(4-(1-methyl-1H-pyrazol-3-yl)phenyl)-1H-imidazol-2-yl)-7-(methylamino)-7-oxoheptyl)tetra-hydrofuran-2-carboxamide] | > 5000 | > 5000
CNC(=O)CCCCC[C@H](NC(=O)C1CCN(C)CC1)c1ncc(-c2ccc3ccncc3c2)[nH]1 [Entry 118, (S)-N-(1-(5-(isoquinolin-7-yl)-1H-imidazol-2-yl)-7-(methylamino)-7-oxoheptyl)-1-methylpiperidine-4-carboxamide] | 1000 to 5000 | 1000 to 5000
CNC(=O)CCCCC[C@H](NC(=O)c1cncs1)c1ncc(-c2ccc3nc(C(F)(F)F)ccc3c2)[nH]1 [Entry 19, (S)-N-(7-(methylamino)-7-oxo-1-(5-(2-(trifluoro-methyl)quinolin-6-yl)-1H-imidazol-2-yl)heptyl)thiazole-5-carboxamide] | 1000 to 5000 | 1000 to 5000
CNC(=O)CCCCC[C@H](NC(=O)Cn1c(=O)ncc2ccccc21)c1ncc(-c2ccc3ccccc3c2)[nH]1 [Entry 151] | < 1000 | 1000 to 5000
CNC(=O)CCCCC[C@H](NC(=O)c1cncs1)c1ncc(-c2ccc(-c3ccccc3)cc2)[nH]1 [Entry 108, (S)-N-(1-(5-([1,1′-biphenyl]-4-yl)-1H-imidazol-2-yl)-7-(methylamino)-7-oxoheptyl)thiazole-5-carboxamide] | > 5000 | > 5000
CNC(=O)CCCCC[C@H](NC(=O)c1cccc(-n2nc(C)cc2C)c1)c1ncc(-c2ccc3ccccc3c2)[nH]1 [Entry 42, (S)-3-(3,5-dimethyl-1H-pyrazol-1-yl)-N-(7-(methylamino)-1-(5-(naphthalen-2-yl)-1H-imidazol-2-yl)-7-oxo-heptyl)benzamide] | 1000 to 5000 | 1000 to 5000
CNC(=O)CCCCC[C@H](NC(=O)Cn1cnnc1)c1ncc(-c2ccc3ccccc3c2)[nH]1 [Entry 116, (S)-7-(2-(4H-1,2,4-triazol-4-yl)acetamido)-N-methyl-7-(5-(naphthalen-2-yl)-1H-imidazol-2-yl)heptanamide] | 1000 to 5000 | 1000 to 5000
CNC(=O)CCCCC[C@H](NC(=O)c1nc[nH]n1)c1ncc(-c2cc3ccccc3nc2OC)[nH]1 [Entry 102, (S)-N-(1-(5-(2-methoxyquinolin-3-yl)-1H-imidazol-2-yl)-7-(methylamino)-7-oxoheptyl)-1H-1,2,4-triazole-3-carboxamide] | > 5000 | > 5000
CNC(=O)CCCCC[C@H](NC(=O)OCc1ccccc1)c1ncc(-c2ccc3ccncc3c2)[nH]1 [Entry 93, (S)-benzyl (1-(5-(isoquinolin-7-yl)-1H-imidazol-2-yl)-7-(methylamino)-7-oxoheptyl)carbamate] | < 1000 | < 1000
CNC(=O)CCCCC[C@H](NC(=O)c1nnc(C)s1)c1ncc(-c2ccc3ccccc3c2)[nH]1 [Entry 84, (S)-5-methyl-N-(7-(methylamino)-1-(5-(naphthalen-2-yl)-1H-imidazol-2-yl)-7-oxoheptyl)-1,3,4-thiadiazole-2-carboxamide] | 1000 to 5000 | > 5000
CNC(=O)CCCCC[C@H](NC(=O)Cc1cnc2ccccc2c1)c1ncc(-c2ccc(-n3cccn3)cc2)[nH]1 [Entry 110] | < 1000 | 1000 to 5000
CNC(=O)CCCCC[C@H](NC(=O)c1cncs1)c1ncc(-c2ccc3cc(OC)ncc3c2)[nH]1 [Entry 105, (S)-N-(1-(5-(3-methoxyisoquinolin-7-yl)-1H-imidazol-2-yl)-7-(methylamino)-7-oxoheptyl)thiazole-5-carboxamide] | < 1000 | < 1000
CNC(=O)CCCCC[C@H](NC(=O)c1cncs1)c1ncc(-c2ccc3cc(OC)ccc3c2)[nH]1 [Entry 194, (S)-N-(1-(5-(6-methoxynaphthalen-2-yl)-1H-imidazol-2-yl)-7-(methylamino)-7-oxoheptyl)thiazole-5-carboxamide] | < 1000 | < 1000
CNC(=O)CCCCC[C@H](NC(=O)c1cncs1)c1ncc(-c2ccc(-c3cccnc3)cc2)[nH]1 [Entry 196, (S)-N-(7-(methylamino)-7-oxo-1-(5-(4-(pyridin-3-yl)phenyl)-1H-imidazol-2-yl)heptyl)thiazole-5-carboxamide] | 1000 to 5000 | 1000 to 5000
CNC(=O)CCCCC[C@H](NS(=O)(=O)c1ccc(C#N)cc1)c1ncc(-c2cc3ccccc3nc2OC)[nH]1 [Entry 220] | < 1000 | < 1000
CNC(=O)CCCCC[C@H](NC(=O)C1CC1c1ccncc1)c1ncc(-c2ccc(-c3ccn(C)n3)cc2)[nH]1 (stereo partly drawn) [Entry 170, N-((S)-1-(5-(4-(1-methyl-1H-pyrazol-3-yl)phenyl)-1H-imidazol-2-yl)-7-(methylamino)-7-oxoheptyl)-2-(pyridin-4-yl)cyclopropane-carboxamide] | 1000 to 5000 | 1000 to 5000
CNC(=O)CCCCC[C@H](NC(=O)c1cncs1)c1ncc(-c2cc3ccccc3n(C)c2=O)[nH]1 [Entry 140, (S)-N-(1-(5-(1-methyl-2-oxo-1,2-dihydroquinolin-3-yl)-1H-imidazol-2-yl)-7-(methylamino)-7-oxoheptyl)thiazole-5-carboxamide] | 1000 to 5000 | 1000 to 5000
CNC(=O)CCCCC[C@H](NC(=O)c1cnsn1)c1ncc(-c2ccc3ccccc3c2)[nH]1 [Entry 45, (S)-N-(7-(methylamino)-1-(5-(naphthalen-2-yl)-1H-imidazol-2-yl)-7-oxoheptyl)-1,2,5-thiadiazole-3-carboxamide] | 1000 to 5000 | > 5000
CNC(=O)CCCCC[C@H](NC(=O)c1ccnn1C)c1ncc(-c2ccc(-c3ccn(C)n3)cc2)[nH]1 [Entry 213, (S)-1-methyl-N-(1-(5-(4-(1-methyl-1H-pyrazol-3-yl)phenyl)-1H-imidazol-2-yl)-7-(methylamino)-7-oxoheptyl)-1H-pyrazole-5-carboxamide] | > 5000 | 1000 to 5000
CNC(=O)CCCCC[C@H](NC(=O)c1cnn(C(C)C)c1)c1ncc(-c2ccc(-c3ccn(C)n3)cc2)[nH]1 [Entry 50, (S)-1-isopropyl-N-(1-(5-(4-(1-methyl-1H-pyrazol-3-yl)phenyl)-1H-imidazol-2-yl)-7-(methylamino)-7-oxoheptyl)-1H-pyrazole-4-carboxamide] | 1000 to 5000 | < 1000
CNC(=O)CCCCC[C@H](NC(=O)c1cc(C)n(-c2ccccc2)n1)c1ncc(-c2ccc3ccccc3c2)[nH]1 [Entry 82, (S)-5-methyl-N-(7-(methylamino)-1-(5-(naphthalen-2-yl)-1H-imidazol-2-yl)-7-oxoheptyl)-1-phenyl-1H-pyrazole-3-carboxamide] | > 5000 | > 5000
CNC(=O)CCCCC[C@H](NC(=O)c1ccccc1-n1cnnn1)c1ncc(-c2ccc3ccccc3c2)[nH]1 [Entry 87, (S)-N-(7-(methylamino)-1-(5-(naphthalen-2-yl)-1H-imidazol-2-yl)-7-oxoheptyl)-2-(1H-tetrazol-1-yl)benzamide] | 1000 to 5000 | 1000 to 5000

From US9365541B2, “Compounds for use in the treatment of parasitic diseases” (IRBM—SCIENCE PARK S.P.A., priority 2012, dated 2016)
